{"source": "paper PMC11045757", "about": "“Group 3 medulloblastoma transcriptional networks collapse under domain specific EP300/CBP inhibition” (Nature Communications, 2024)", "key": {"[1]": {"target": "T1, BAZ2B (Homo sapiens, UniProt Q9UIF8)", "T1 construct": "purchased Eurofins DiscoverX (BROMOscan)", "assay": "BromoScan profiling (DiscoverX)", "type": "binding", "conditions": "read-out: Percent Control BAZ2B"}, "[2]": {"assay": "Plasma pharmacokinetics after i.p. dosing", "type": "in vivo, female CD-1 nude mice", "conditions": "16 and 24 hrs, below lower limit of quantitation", "procedure": "All animal studies were approved by the St. Jude Children’s Research Hospital Animal Care and Use Committee and performed in accordance with best practices outlined by the NIH Office of Laboratory Animal Welfare. […] Three survival blood samples were obtained from each mouse via retro-orbital plexus using 70 μL glass microhematocrit capillary tubes (Fisher), and a fourth final sample by cardiac puncture immediately following the third survival sample, all using K-EDTA as anticoagulant. Samples were obtained at various times up to 24 h post-dose, immediately processed to plasma, and stored at −80 °C until analysis. […]\nBrain samples were homogenized using a FastPrep-24 system (MP Biomedicals, Santa Ana, CA), and stored at -80 °C until analysis by qualified liquid chromatography–tandem mass spectrometry (LC-MS/MS) assay. […] Plasma and brain homogenate samples were precipitated, and extracted supernatant was analyzed on an AB Sciex ExionLC high performance liquid chromatography system via an AB Sciex ExionLC autosampler. For quantitation, a linear model (1/X^2 weighting) fit the plasma and brian homogenate calibrators across the 1 to 500 ng/mL range, with a correlation coefficient (R) of ≥0.9967. The lower limit of quantitation (LLOQ), defined as a peak area signal-to-noise ratio of 5 or greater verses a matrix blank with internal standard, was 1 ng/mL in plasma and 6 ng/mL in brain. […]"}, "[3]": {"system": "HDMB03 (HDMBO3) cells", "assay": "ERCC spike-in RNAseq gene expression after 6 h treatment", "type": "cell-based", "conditions": "HDMBO3, replicate values, Supplementary Fig 6c", "procedure": "(§1) First, we examined global changes in gene expression induced by drug treatment.\n(§2) External RNA consortium control RNAs (ERCC, Ambion) were added directly to Trizol, based on cell number prior to RNA extraction. RNA samples were treated with DNAse I (Invitrogen) prior to recovery. Samples were obtained in biological triplicate. Total RNA was subjected to ribosomal RNA depletion prior to library preparation using the Truseq Stranded Total Library Prep Kit (Illumina) and sequencing on a Nextseq-500 (paired end, 100 bp reads).\n(§3) Sequences were aligned using HISAT2 (version 2.1.0)[77] in paired-end mode with default parameters to build version hg19 of the human genome to which the sequences of the ERCC synthetic spike-in RNAs (http://tools.invitrogen.com/downloads/ERCC92.fa) had been added. Per-gene expression was quantified using htseq-count[78] with parameters “-i gene_id --stranded=reverse -f bam -m,” and version 87 of the canonical GRCh37 gene list from RefSeq to which ERCC coordinates were added. TPM-normalized (Transcripts Per Million) expression was then computed for each gene and synthetic ERCC spike-in RNA. Per-gene exon length was calculated across all exons of all isoforms of each gene. The standard TPM-normalization strategy is: normterm = sum of (read count * read length/exon length) across all genes. TPM = read count * read length/exon length * 1e6/normterm. We used a loess regression to normalize the TPM values across all samples of the batch, using only the spike-in values to fit the loess by the “affy” R package[79] with function loess.normalize. This function allowed us to perform loess regression on a matrix of TPM values and used the ERCC subset of data for fitting the loess. The output from this was a matrix of normalized TPM values controlled by ERCC spike-ins.\n(§4) We used the elbow method[81] to determine the k value in k-means cluster analysis.\n(§5) Dependency analysis was performed using the 22Q4 release of the DepMap dataset, comprising seven medulloblastoma cell lines: UW228, DAOY, ONS76, D458, D425, D283MED, D341MED. Dependency was defined as a Chronos gene effect score of <−0.5, and gene lists were filtered for dependency in >2/7 medulloblastoma cell lines. […] PANTHER was used to define gene annotations, with unknown annotations assigned using individual assessment using the Genecards.org resource."}, "[4]": {"system": "MB002 cells", "assay": "ERCC spike-in RNAseq gene expression after 6 h treatment", "type": "cell-based", "conditions": "MB002, replicate values, Supplementary Fig 6c", "procedure": "as §1, §2, §3, §4, §5"}, "[5]": {"target": "T2, BRD4(1) (Homo sapiens, UniProt O60885)", "T2 construct": "BRD4(1); purchased Eurofins DiscoverX (BROMOscan)", "assay": "BromoScan profiling (DiscoverX)", "type": "binding", "conditions": "read-out: Percent Control BRD4(1)"}, "[6]": {"target": "T3, BRDT(2) (Homo sapiens, UniProt Q58F21)", "T3 construct": "BRDT(2); purchased Eurofins DiscoverX (BROMOscan)", "assay": "BromoScan profiling (DiscoverX)", "type": "binding", "conditions": "read-out: Percent Control BRDT(2)"}, "[7]": {"target": "T4, BRD4(2) (Homo sapiens, UniProt O60885)", "T4 construct": "BRD4(2); purchased Eurofins DiscoverX (BROMOscan)", "assay": "BromoScan profiling (DiscoverX)", "type": "binding", "conditions": "read-out: Percent Control BRD4(2)"}, "[8]": {"target": "T5, BRD2(2) (Homo sapiens, UniProt P25440)", "T5 construct": "BRD2(2); purchased Eurofins DiscoverX (BROMOscan)", "T5 sequence (P25440 348-455 limits assumed)": "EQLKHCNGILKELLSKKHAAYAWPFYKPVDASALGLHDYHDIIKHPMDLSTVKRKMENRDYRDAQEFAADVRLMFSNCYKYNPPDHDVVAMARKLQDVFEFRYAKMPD", "assay": "BromoScan profiling (DiscoverX)", "type": "binding", "conditions": "read-out: Percent Control BRD2(2)"}, "[9]": {"target": "T6, BRD1 (Homo sapiens, UniProt O95696)", "T6 construct": "purchased Eurofins DiscoverX (BROMOscan)", "T6 sequence (O95696 whole entry)": "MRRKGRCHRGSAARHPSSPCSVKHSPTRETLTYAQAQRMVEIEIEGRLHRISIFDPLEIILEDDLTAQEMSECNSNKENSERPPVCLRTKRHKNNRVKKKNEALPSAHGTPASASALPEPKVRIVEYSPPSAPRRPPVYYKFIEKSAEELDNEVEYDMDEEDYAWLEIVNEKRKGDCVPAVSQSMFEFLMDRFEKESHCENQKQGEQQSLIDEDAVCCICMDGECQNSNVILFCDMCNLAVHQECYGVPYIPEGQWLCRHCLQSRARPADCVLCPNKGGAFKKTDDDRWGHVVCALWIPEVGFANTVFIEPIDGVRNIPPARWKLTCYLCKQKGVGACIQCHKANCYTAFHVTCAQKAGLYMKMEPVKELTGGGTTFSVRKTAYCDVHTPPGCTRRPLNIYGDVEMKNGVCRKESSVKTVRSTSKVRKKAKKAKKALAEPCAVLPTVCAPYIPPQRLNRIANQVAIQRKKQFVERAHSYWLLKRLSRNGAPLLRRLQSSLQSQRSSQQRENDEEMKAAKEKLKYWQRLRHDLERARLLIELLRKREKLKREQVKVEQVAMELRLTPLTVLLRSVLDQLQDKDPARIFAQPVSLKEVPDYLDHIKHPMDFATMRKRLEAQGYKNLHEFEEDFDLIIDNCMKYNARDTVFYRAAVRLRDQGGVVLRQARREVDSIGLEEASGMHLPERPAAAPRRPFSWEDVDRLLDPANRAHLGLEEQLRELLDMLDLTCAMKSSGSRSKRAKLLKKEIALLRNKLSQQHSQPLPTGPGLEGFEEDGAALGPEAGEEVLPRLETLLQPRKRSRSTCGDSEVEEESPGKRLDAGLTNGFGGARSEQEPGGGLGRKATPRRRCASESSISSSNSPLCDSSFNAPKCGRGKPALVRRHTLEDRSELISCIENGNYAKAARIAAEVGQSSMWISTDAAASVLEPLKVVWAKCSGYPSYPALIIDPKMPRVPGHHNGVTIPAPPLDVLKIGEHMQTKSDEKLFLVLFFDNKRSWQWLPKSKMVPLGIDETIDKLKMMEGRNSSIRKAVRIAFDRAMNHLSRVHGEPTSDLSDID", "assay": "BromoScan profiling (DiscoverX)", "type": "binding", "conditions": "read-out: Percent Control BRD1"}, "[10]": {"target": "T7, ATAD2A (Homo sapiens, UniProt Q6PL18)", "T7 construct": "purchased Eurofins DiscoverX (BROMOscan)", "T7 sequence (Q6PL18 whole entry)": "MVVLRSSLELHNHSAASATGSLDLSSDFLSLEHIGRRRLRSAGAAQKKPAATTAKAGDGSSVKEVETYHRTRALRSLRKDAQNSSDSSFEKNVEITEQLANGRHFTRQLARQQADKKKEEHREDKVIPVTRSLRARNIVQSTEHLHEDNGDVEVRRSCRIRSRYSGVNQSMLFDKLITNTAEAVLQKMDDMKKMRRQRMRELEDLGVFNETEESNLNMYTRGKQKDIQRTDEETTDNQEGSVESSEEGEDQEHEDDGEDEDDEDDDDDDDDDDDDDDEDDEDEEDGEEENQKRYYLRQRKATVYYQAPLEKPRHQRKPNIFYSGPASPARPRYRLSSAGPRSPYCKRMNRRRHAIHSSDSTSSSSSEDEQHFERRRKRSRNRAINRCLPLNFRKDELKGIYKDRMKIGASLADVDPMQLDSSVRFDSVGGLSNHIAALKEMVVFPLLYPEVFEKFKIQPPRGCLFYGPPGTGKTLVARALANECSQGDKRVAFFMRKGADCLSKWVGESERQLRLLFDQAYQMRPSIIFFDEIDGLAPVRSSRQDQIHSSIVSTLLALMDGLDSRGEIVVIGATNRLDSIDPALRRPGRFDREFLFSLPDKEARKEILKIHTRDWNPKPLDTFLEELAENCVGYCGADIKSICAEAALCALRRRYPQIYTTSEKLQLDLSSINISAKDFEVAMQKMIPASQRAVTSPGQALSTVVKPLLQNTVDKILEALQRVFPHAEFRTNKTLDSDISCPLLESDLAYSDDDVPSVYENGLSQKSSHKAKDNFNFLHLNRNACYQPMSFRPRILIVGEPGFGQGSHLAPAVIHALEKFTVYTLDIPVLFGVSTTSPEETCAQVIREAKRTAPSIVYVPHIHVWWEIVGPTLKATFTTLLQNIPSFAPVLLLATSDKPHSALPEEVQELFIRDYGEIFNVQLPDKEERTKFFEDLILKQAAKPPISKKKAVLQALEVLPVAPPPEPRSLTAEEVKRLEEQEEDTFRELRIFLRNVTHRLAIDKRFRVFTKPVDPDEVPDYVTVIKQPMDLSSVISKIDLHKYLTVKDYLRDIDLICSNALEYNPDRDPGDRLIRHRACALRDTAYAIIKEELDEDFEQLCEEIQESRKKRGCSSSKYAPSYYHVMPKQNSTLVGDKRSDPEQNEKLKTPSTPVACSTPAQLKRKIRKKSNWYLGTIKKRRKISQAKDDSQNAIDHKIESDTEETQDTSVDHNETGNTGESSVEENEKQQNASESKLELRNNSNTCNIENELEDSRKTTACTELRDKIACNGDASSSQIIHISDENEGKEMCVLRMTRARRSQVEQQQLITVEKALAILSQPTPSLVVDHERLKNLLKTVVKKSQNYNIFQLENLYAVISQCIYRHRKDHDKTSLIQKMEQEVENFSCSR", "assay": "BromoScan profiling (DiscoverX)", "type": "binding", "conditions": "read-out: Percent Control ATAD2A"}, "[11]": {"target": "T8, PCAF (Homo sapiens, UniProt Q92831)", "T8 construct": "purchased Eurofins DiscoverX (BROMOscan)", "T8 sequence (Q92831 whole entry)": "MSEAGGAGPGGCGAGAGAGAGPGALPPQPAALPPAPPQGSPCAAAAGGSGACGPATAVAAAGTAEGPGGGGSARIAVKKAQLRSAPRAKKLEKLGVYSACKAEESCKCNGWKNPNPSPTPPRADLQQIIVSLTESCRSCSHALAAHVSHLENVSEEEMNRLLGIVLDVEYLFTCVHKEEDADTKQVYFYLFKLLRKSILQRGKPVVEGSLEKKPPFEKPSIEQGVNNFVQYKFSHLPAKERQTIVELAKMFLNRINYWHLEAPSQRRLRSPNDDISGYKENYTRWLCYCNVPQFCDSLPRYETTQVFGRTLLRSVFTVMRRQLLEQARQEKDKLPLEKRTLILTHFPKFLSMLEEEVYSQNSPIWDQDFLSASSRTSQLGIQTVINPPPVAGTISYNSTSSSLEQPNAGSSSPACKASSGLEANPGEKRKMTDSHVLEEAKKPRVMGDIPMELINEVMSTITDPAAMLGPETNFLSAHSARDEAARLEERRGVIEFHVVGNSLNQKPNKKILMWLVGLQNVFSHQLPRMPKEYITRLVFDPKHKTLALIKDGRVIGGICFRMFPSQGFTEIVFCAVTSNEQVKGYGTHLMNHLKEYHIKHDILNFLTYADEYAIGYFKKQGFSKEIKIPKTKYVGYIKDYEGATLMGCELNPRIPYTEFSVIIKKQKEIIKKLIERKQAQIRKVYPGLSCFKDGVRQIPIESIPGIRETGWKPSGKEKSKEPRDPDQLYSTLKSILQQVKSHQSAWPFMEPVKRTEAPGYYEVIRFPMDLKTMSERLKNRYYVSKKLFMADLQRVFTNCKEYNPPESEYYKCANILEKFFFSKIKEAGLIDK", "assay": "BromoScan profiling (DiscoverX)", "type": "binding", "conditions": "read-out: Percent Control PCAF"}, "[12]": {"target": "T9, SMARCA2 (Homo sapiens, UniProt P51531)", "T9 construct": "purchased Eurofins DiscoverX (BROMOscan)", "T9 sequence (P51531 whole entry)": "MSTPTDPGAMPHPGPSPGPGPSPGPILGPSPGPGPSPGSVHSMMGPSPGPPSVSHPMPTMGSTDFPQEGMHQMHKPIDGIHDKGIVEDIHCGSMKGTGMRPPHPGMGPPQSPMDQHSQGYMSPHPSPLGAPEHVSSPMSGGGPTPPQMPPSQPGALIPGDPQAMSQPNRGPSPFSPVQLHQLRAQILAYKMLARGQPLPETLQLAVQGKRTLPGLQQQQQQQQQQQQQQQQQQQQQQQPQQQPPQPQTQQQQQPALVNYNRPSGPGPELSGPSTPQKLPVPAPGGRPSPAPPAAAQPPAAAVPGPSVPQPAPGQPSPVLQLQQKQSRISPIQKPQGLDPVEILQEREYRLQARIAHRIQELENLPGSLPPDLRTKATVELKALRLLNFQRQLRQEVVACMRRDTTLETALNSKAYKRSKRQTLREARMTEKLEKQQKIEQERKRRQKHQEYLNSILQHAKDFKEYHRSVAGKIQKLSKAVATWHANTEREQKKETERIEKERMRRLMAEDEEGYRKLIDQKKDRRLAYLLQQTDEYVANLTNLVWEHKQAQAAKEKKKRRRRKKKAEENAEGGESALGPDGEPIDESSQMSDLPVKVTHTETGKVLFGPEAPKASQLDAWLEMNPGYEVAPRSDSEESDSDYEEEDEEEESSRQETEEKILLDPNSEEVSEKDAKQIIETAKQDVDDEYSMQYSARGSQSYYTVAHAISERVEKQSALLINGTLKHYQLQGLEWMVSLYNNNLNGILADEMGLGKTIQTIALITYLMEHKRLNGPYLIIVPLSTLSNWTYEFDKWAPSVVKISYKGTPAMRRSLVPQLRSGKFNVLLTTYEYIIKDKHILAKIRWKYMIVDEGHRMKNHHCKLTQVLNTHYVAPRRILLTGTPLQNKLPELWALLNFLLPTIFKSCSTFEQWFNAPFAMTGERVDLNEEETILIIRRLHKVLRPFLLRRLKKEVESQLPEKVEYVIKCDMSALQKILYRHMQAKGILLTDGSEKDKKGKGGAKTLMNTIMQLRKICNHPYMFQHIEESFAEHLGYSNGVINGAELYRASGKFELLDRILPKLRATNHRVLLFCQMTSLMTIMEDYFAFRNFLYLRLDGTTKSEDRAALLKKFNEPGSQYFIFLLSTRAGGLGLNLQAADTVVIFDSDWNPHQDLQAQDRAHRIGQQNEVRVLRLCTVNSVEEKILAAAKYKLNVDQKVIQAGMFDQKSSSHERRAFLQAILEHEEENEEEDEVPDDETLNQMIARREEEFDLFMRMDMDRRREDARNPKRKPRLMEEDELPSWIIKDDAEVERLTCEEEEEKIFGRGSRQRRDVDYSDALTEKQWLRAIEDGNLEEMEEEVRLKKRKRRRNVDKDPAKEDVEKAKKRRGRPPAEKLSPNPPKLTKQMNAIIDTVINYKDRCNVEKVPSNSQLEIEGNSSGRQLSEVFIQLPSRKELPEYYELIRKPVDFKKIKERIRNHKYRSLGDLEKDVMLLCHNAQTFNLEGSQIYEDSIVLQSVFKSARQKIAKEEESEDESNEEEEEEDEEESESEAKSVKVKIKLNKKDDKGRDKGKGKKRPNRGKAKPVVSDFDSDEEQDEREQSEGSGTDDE", "assay": "BromoScan profiling (DiscoverX)", "type": "binding", "conditions": "read-out: Percent Control SMARCA2"}}, "note": "Several values for one entry are separate records, joined by “and”; a condition that tells them apart may be missing. Equal values may be shown once."}
{"smiles": "CO[C@H]1CC[C@H](n2c([C@@H]3CCCC(=O)N3c3ccc(F)c(F)c3)nc3cc(-c4c(C)noc4C)ccc32)CC1", "note": "[CCS1477]", "values": [{"measurement": "remaining binding at 1 µM", "setting": "[1]", "result": 82, "unit": "%"}, {"measurement": "plasma concentration", "setting": "[2]", "result": "< 1", "unit": "ng/mL"}, {"measurement": "Normalized MYC expression", "setting": "[3]", "result": "0.5957 and 0.4799 and 0.4227"}, {"measurement": "Normalized MYC expression", "setting": "[4]", "result": "0.3944 and 0.5851 and 0.5892"}, {"measurement": "remaining binding at 1 µM", "setting": "[5]", "result": 3.3, "unit": "%"}, {"measurement": "remaining binding at 1 µM", "setting": "[6]", "result": 76, "unit": "%"}, {"measurement": "remaining binding at 1 µM", "setting": "[7]", "result": 75, "unit": "%"}, {"measurement": "remaining binding at 1 µM", "setting": "[8]", "result": 57, "unit": "%"}, {"measurement": "remaining binding at 1 µM", "setting": "[9]", "result": 88, "unit": "%"}, {"measurement": "remaining binding at 1 µM", "setting": "[10]", "result": 100, "unit": "%"}, {"measurement": "remaining binding at 1 µM", "setting": "[11]", "result": 88, "unit": "%"}, {"measurement": "remaining binding at 1 µM", "setting": "[12]", "result": 50, "unit": "%"}]}
{"smiles": "CNC(=O)Nc1ccc2c(c1)CCC21OC(=O)N(CC(=O)N(Cc2ccc(F)cc2)C(C)C(F)(F)F)C1=O", "note": "(centres unmarked) [Compound A485]", "values": [{"measurement": "Normalized MYC expression", "setting": "[3]", "result": "0.9151 and 0.6386 and 0.4867"}, {"measurement": "Normalized MYC expression", "setting": "[4]", "result": "0.2801 and 0.5062 and 0.4843"}]}
